# Laboratory results: ChEMBL document CHEMBL4689842, “EUbOPEN Chemogenomics Library wave 1” (2021)
# Where a SMILES comes first, the peptide text is derived from it. [ ]: non-standard residue; d: D form. Arg(Me) = CNC(=N)NCCC[C@H](N)C(=O)O; d4Pal = N[C@H](Cc1ccncc1)C(=O)O; azaGly = NNC(=O)O
# How the values were obtained:
# Assay type in all cases: toxicity, cell-based
# HEK-293T = assay: Incucyte cell viability with HEK293T; conditions: human, 10 µM, compound concentration 10 uM
# Fibroblast = assay: Incucyte cell viability with human fibroblast; conditions: 10 µM, compound concentration 10 uM
# U2OS = assay: Incucyte cell viability with U2OS; conditions: human, 10 µM, compound concentration 10 uM
# [1] = 0 h, replicate number 1, timepoint 0 hours
# [2] = 24 h, replicate number 2, timepoint 24 hours
# [3] = 6 h, replicate number 1, timepoint 6 hours
# [4] = 12 h, replicate number 1, timepoint 12 hours
# [5] = 18 h, replicate number 1, timepoint 18 hours
# [6] = 24 h, replicate number 1, timepoint 24 hours
# [7] = 18 h, replicate number 2, timepoint 18 hours
# [8] = 0 h, replicate number 2, timepoint 0 hours
# [9] = 12 h, replicate number 2, timepoint 12 hours
# [10] = 6 h, replicate number 2, timepoint 6 hours
# Further: filed as whole numbers so only -1 and 0 and 1 occur.
Structure (SMILES),Growth Rate (HEK-293T; [1]),Growth Rate (HEK-293T; [2]),Growth Rate (Fibroblast; [1]),Growth Rate (Fibroblast; [3]),Growth Rate (Fibroblast; [4]),Growth Rate (Fibroblast; [5]),Growth Rate (Fibroblast; [6]),Growth Rate (U2OS; [1]),Growth Rate (U2OS; [3]),Growth Rate (U2OS; [4]),Growth Rate (U2OS; [5]),Growth Rate (U2OS; [6]),Growth Rate (HEK-293T; [3]),Growth Rate (HEK-293T; [4]),Growth Rate (HEK-293T; [5]),Growth Rate (HEK-293T; [6]),Growth Rate (HEK-293T; [8]),Growth Rate (HEK-293T; [9]),Growth Rate (U2OS; [10]),Growth Rate (U2OS; [9]),further results
CC1=C(C#N)C(c2ccc3[nH]nc(C)c3c2)C(C#N)=C(C)N1 [BAY-474],0,1,1,0,1,1,1,0,0,0,0,0,–,–,–,–,–,–,–,–,Growth Rate (U2OS; [7]): 1
N#Cc1c(O)nc(SCc2cccc(F)c2F)nc1C1CC1,0,0,0,1,1,1,1,0,–,1,1,1,1,1,1,1,–,–,–,–,–
C[C@@H]1CCN(C(=O)CC#N)C[C@@H]1N(C)c1ncnc2[nH]ccc12.O=C(O)CC(O)(CC(=O)O)C(=O)O [TOFACITINIB CITRATE],1,–,0,–,1,1,1,0,0,0,0,0,0,0,1,1,0,1,–,–,–
CNC(=NCCSCc1csc(N=C(N)N)n1)NC#N [TIOTIDINE],1,–,0,1,0,0,0,0,–,1,0,1,0,1,0,0,0,0,0,0,Growth Rate (Fibroblast; [10]): 0; Growth Rate (U2OS; [7]): 1
Clc1cccc(-c2nnnn2Cc2cccnc2)c1Cl,1,0,0,1,0,0,0,–,1,0,0,1,1,1,1,1,0,–,0,1,Growth Rate (HEK-293T; [10]): 0; Growth Rate (Fibroblast; [10]): 0; Growth Rate (U2OS; [7]): 1
O=C(Nc1cnc(Oc2ccc(F)cc2)nc1)N1CCc2ncccc2[C@@H]1c1ccc(F)cc1 [BAY-899],0,–,0,1,1,1,1,0,–,1,1,0,0,0,0,0,–,–,–,–,Growth Rate (HEK-293T; [10]): 1; Growth Rate (U2OS; [2]): 1
CCCCN1CCC(COC(=O)c2cc(Cl)c(N)c3c2OCCO3)CC1.Cl,1,–,0,–,–,1,1,1,1,1,1,1,0,0,0,0,0,1,0,0,Growth Rate (HEK-293T; [10]): 1; Growth Rate (HEK-293T; [7]): 1; Growth Rate (Fibroblast; [10]): 0; Growth Rate (Fibroblast; [9]): 0; Growth Rate (Fibroblast; [7]): 0; Growth Rate (Fibroblast; [2]): 0; Growth Rate (U2OS; [7]): 0; Growth Rate (U2OS; [2]): 0
C[C@H](c1ccc(F)cc1)N(Cc1ccc(Cl)c(C(=O)O)c1)C(=O)c1cnc2ccccc2c1 [PF-05257137],1,0,0,–,–,–,1,0,–,1,1,1,0,0,0,1,0,–,–,–,Growth Rate (Fibroblast; [10]): 0; Growth Rate (Fibroblast; [9]): 1; Growth Rate (Fibroblast; [7]): 1
Cn1cnc2c(F)c(Nc3ccc(Br)cc3Cl)c(C(=O)NOCCO)cc21 [SELUMETINIB],0,–,0,–,–,–,1,1,0,0,0,0,–,–,–,1,1,1,–,–,–
COc1cccc(OC)c1-c1cc(C(=O)NC2(C(=O)O)C3CC4CC(C3)CC2C4)nn1-c1ccc(C(=O)N(C)CCCN(C)C)cc1C(C)C (configuration not stated),1,–,0,0,0,0,0,–,–,1,0,0,0,0,1,1,0,1,0,0,Growth Rate (HEK-293T; [10]): 1; Growth Rate (HEK-293T; [7]): 0; Growth Rate (Fibroblast; [7]): 1; Growth Rate (Fibroblast; [2]): 1; Growth Rate (U2OS; [8]): 0; Growth Rate (U2OS; [2]): 1
CNC(=N)NCCC[C@H](NC(=O)[C@H](CC(C)C)NC(=O)NNC(=O)[C@H](Cc1ccccc1)NC(=O)[C@H](CO)NC(=O)[C@H](CC(N)=O)NC(=O)[C@@H](Cc1ccncc1)NC(=O)[C@H](N)Cc1ccc(O)cc1)C(=O)N[C@@H](Cc1ccccc1)C(N)=O [KISS1-305] (H-[dY][d4Pal]NSF[azaGly]L[Arg(Me)]F-NH2),0,–,0,0,0,0,0,–,–,1,0,0,0,1,0,0,–,0,1,–,Growth Rate (U2OS; [8]): 0
CS(=O)(=O)c1cccc(NC(=O)N(Cc2ccc(C(=O)Nc3nn[nH]n3)cc2)c2ccc(C3CCCCC3)cc2)c1,1,0,0,0,0,0,1,0,–,–,1,1,1,1,1,1,0,0,1,1,Growth Rate (HEK-293T; [10]): 0; Growth Rate (HEK-293T; [7]): 0
